Results on 32 compounds are retold here after ChEMBL document CHEMBL3301361, “Experimental in vitro DMPK and physicochemical data on a set of publicly disclosed compounds”.

Usually hepatocyte CLint stands for the capacity of the preparation to metabolise the compound, expressed as a volume cleared per time. Read a high hepatocyte CLint as rapid turnover. The term solubility (thermodynamic) denotes the concentration in solution at equilibrium with solid. By logD is commonly meant the decadic logarithm of the distribution of all forms, ionised or not, between an organic phase and buffer at a given pH. As a reminder, the microsomal CLint is the capacity of the preparation to metabolise the compound, expressed as a volume cleared per time. A low value points to greater metabolic stability. Usually fraction unbound stands for the share of the substance not bound to proteins or other matrix. Higher therefore signals much free substance.

The nature of data set [1]: in vitro. As to conditions: human, hepatocytes.
Data set [2] can be described thus: physchem. As to conditions: pH 7.4 buffer.
A short description of data set [3]: in vitro. As to conditions: hepatocytes.
Data set [4] in a line: physchem. As to conditions: octan-1-ol/water, pH 7.4, LogD7.4.
A short description of data set [5]: in vitro. As to conditions: human.
A short description of data set [6]: in vitro. As to conditions: human, plasma, PPB.
Data set [7] in a line: in vitro. As to conditions: SD, HW or BN, rat, plasma.

SMILES strings stand for the structures. ≈ marks a conversion by molar mass, not a printed value.

As to `C=CC(=O)Nc1cccc(Oc2nc(Nc3ccc(N4CCN(C)CC4)cc3OC)ncc2Cl)c1`, the values for the hepatocyte CLint in data set [1] and in data set [3] were 3.31 µL/min/1e6 cells and 79.4 µL/min/1e6 cells, respectively. In addition, the thermodynamic solubility in data set [2] was found to be 1 µM (≈ 0.495 µg/mL). The logD in data set [4] came out at 3.9.

Turning to `O=C(Nc1nc2ccccc2s1)c1ccccc1`, the hepatocyte CLint in data set [1] was determined as 77.6 µL/min/1e6 cells; in data set [3] it was 64.6 µL/min/1e6 cells. Also, the microsomal CLint in data set [5] (microsomes) is over 150 µL/min/mg.

In the case of `O=C(O)COc1ccc(C(F)(F)F)cc1CN1CCN(S(=O)(=O)c2ccccc2)CC1`, the hepatocyte CLint in data set [1] and in data set [3] was under 3 µL/min/1e6 cells throughout. In addition, the microsomal CLint in data set [5] (liver microsomes) is 6.33 µL/min/mg.

On to `N#CCC(CNc1ncc(C(F)(F)F)cc1Cl)OC(=O)c1c(F)cccc1F` (stereo not given), for which the hepatocyte CLint in data set [1] and in data set [3] was over 150 µL/min/1e6 cells each time. The microsomal CLint in data set [5] (liver microsomes) is over 150 µL/min/mg.

In the case of `O=c1[nH]c2c(O)ccc([C@@H](O)CNCCc3cccc(CNCCc4c(Cl)cccc4Cl)c3)c2s1`, the results for the hepatocyte CLint in data set [1] and in data set [3] were 5.17 µL/min/1e6 cells and 78 µL/min/1e6 cells, respectively. The microsomal CLint in data set [5] (liver microsomes) came to 63 µL/min/mg. Moreover, in data set [4], the logD came out at 3.15.

For `CCOC(=O)/C=C/[C@H](C[C@@H]1CCNC1=O)NC(=O)[C@@H](CC(=O)[C@@H](NC(=O)c1cc(C)on1)C(C)C)Cc1ccc(F)cc1`, the results for the hepatocyte CLint in data set [1] and in data set [3] were 40.7 µL/min/1e6 cells and over 150 µL/min/1e6 cells, respectively. The compound also displayed a microsomal CLint in data set [5] (liver microsomes) of 105 µL/min/mg. Also, the logD in data set [4] was determined as 2.8.

For the compound `NC1(c2ccc(-c3nn4ccnc4cc3-c3ccccc3)cc2)CCC1`, the hepatocyte CLint is 7.76 µL/min/1e6 cells in data set [1] and over 150 µL/min/1e6 cells in data set [3].

Take `NC1(c2ccc(-c3nc4ccccn4c3-c3ccccc3)cc2)CCC1`: the hepatocyte CLint in data set [1] was 18.2 µL/min/1e6 cells; in data set [3], over 150 µL/min/1e6 cells.

With `NC1(c2ccc(-c3ncc4nccn4c3-c3ccccc3)cc2)CCC1`, the figures for the hepatocyte CLint in data set [1] and in data set [3] were under 3 µL/min/1e6 cells and 16.2 µL/min/1e6 cells, respectively.

In the case of `Cc1nn(C)c2cc(N3CCN(C(=O)[C@@H]4CCCC[C@H]4C(=O)NC4(C#N)CC4)[C@H](C)C3)ccc12`, the hepatocyte CLint in data set [1] was found to be 7.41 µL/min/1e6 cells; in data set [3], 8.13 µL/min/1e6 cells.

For `N#Cc1ccc(OC2CCN(C[C@H](O)CNC(=O)c3c[nH]c(=O)c4ccccc34)CC2)cc1Cl`, the results for the hepatocyte CLint in data set [1] and in data set [3] were under 3 µL/min/1e6 cells and 15 µL/min/1e6 cells, respectively. The compound further gave a fraction unbound at 5 h in data set [6] of 0.197. The logD in data set [4] was found to be 2.56.

Consider `C[C@H](CO)Nc1nc(SCc2ccccc2F)nc2nc(N)sc12`, for which the results for the hepatocyte CLint in data set [1] and in data set [3] were 5.75 µL/min/1e6 cells and 19 µL/min/1e6 cells, respectively. The intrinsic clearance (microsomal CLint) in data set [5] (microsomes) was 8.13 µL/min/mg. The logD in data set [4] turned out to be 3.12.

In turn, `CCC[C@H](CO)Nc1nc(S[C@@H](C)c2cccc(C#N)c2)nc2[nH]c(=O)sc12` returned a hepatocyte CLint in data set [1] of 22.4 µL/min/1e6 cells. In addition, the fraction unbound at 5 h in data set [6] was 0.0007; in data set [7], 0.0008. The microsomal CLint in data set [5] (liver microsomes) is 52.5 µL/min/mg. The same compound came in with a logD in data set [4] of 3.7.

With `Cn1sc(=O)c2cc(S(N)(=O)=O)ccc21`, the intrinsic clearance (hepatocyte CLint) in data set [1] amounted to 27.5 µL/min/1e6 cells; in data set [3] it was 17.4 µL/min/1e6 cells. For the same compound, the logD in data set [4] was 0.3.

On to `O=c1[nH]c2ccccc2n1C1CCN(Cc2ccc(-c3nc4ccccc4cc3-c3ccccc3)cc2)CC1`, for which the hepatocyte CLint is under 3 µL/min/1e6 cells in data set [1] and 35.5 µL/min/1e6 cells in data set [3].

As for `CC(CO)(CO)Nc1nc(SCc2cccc(F)c2F)nc2nc(N)sc12`, the hepatocyte CLint came out at 4.92 µL/min/1e6 cells in data set [1] and 7 µL/min/1e6 cells in data set [3]. Moreover, the fraction unbound at 5 h in data set [6] was 0.129. Also, the logD in data set [4] turned out to be 2.87.

Regarding `Cc1ccc(NC(=O)c2cccc(N(C)S(C)(=O)=O)c2)cc1NC(=O)c1ccc2ncccc2c1`, the values for the hepatocyte CLint in data set [1] and in data set [3] were under 3 µL/min/1e6 cells and 72.4 µL/min/1e6 cells, respectively.

Take `COC(=O)c1ccc(C)c(NS(=O)(=O)c2ccc3c(c2)c(=O)sn3C)c1`: the hepatocyte CLint in data set [1] and in data set [3] was over 150 µL/min/1e6 cells throughout. For the same compound, in data set [4], the logD came out at 2.6.

For the compound `COC(=O)C1=C(C)NC(C)=C(C(=O)OC(C)C)[C@@H]1c1cccc2nonc12` [(R)-ISRADIPINE], the figures for the hepatocyte CLint in data set [1] and in data set [3] were 126 µL/min/1e6 cells and over 150 µL/min/1e6 cells, respectively. This compound also yielded a logD in data set [4] of 3.77.

With `C=CCc1ccccc1OCC(O)CNC(C)C` (stereo not given) [ALPRENOLOL], the hepatocyte CLint is 13.2 µL/min/1e6 cells in data set [1] and over 150 µL/min/1e6 cells in data set [3]. The logD in data set [4] is 0.99.

Regarding `COc1ccccc1Oc1c(NS(=O)(=O)c2ccc(C(C)(C)C)cc2)nc(-c2ncccn2)nc1OCCO` [BOSENTAN], the hepatocyte CLint in data set [1] amounted to 4.79 µL/min/1e6 cells. In addition, the results for the fraction unbound at 5 h in data set [6] and in data set [7] were 0.013 and 0.0122, respectively. The same compound yielded a microsomal CLint in data set [5] (liver microsomes) of 15.1 µL/min/mg. The compound further returned a logD in data set [4] of 1.03.

For `CCc1cccc2cc(C(O)CNC(C)(C)C)oc12` (stereo not given) [BUFURALOL], the hepatocyte CLint in data set [1] was 8.71 µL/min/1e6 cells; in data set [3], over 150 µL/min/1e6 cells. Also, the fraction unbound at 5 h in data set [6] was 0.0801.

Consider `CCOc1ccc2ccc(=O)oc2c1` [ETHOXYCOUMARIN], for which the hepatocyte CLint in data set [1] stood at 35.5 µL/min/1e6 cells; in data set [3] it was 64.6 µL/min/1e6 cells. In data set [2], this compound displayed a solubility (thermodynamic) of 1000 µM (≈ 190 µg/mL). Further, the logD in data set [4] is 2.2.

In the case of `C#Cc1cccc(Nc2ncnc3cc4c(cc23)OCCOCCOCCO4)c1` [ICOTINIB], the hepatocyte CLint in data set [1] worked out at 3.55 µL/min/1e6 cells; in data set [3], 21.9 µL/min/1e6 cells.

As for `CC1Cc2ccccc2N1NC(=O)c1ccc(Cl)c(S(N)(=O)=O)c1` (stereo not given) [INDAPAMIDE], the hepatocyte CLint is 4.9 µL/min/1e6 cells in data set [1] and 13.2 µL/min/1e6 cells in data set [3]. The fraction unbound at 5 h in data set [6] was 0.204. In data set [2], this compound yielded a thermodynamic solubility of 151 µM (≈ 55.4 µg/mL). This compound also returned a logD in data set [4] of 1.83.

As to `CCN1CCN(c2ccc(Nc3cc(N(C)C(=O)Nc4c(Cl)c(OC)cc(OC)c4Cl)ncn3)cc2)CC1` [INFIGRATINIB], the results for the hepatocyte CLint in data set [1] and in data set [3] were 28.8 µL/min/1e6 cells and 87.1 µL/min/1e6 cells, respectively. This compound also returned a solubility (thermodynamic) in data set [2] of 0.5 µM (≈ 0.28 µg/mL). Further, the pH-dependent lipophilicity (logD) in data set [4] was 3.7.

Regarding `CS(=O)(=O)N1CCc2c(-c3cnc(N)nc3)nc(N3CCOCC3)nc21` [IZORLISIB], the hepatocyte CLint was under 3 µL/min/1e6 cells in data set [1] and 5.37 µL/min/1e6 cells in data set [3]. In addition, in data set [2], the thermodynamic solubility was found to be 1.7 µM (≈ 0.642 µg/mL). The logD in data set [4] worked out at 1.2.

In the case of `Cc1oncc1C(=O)Nc1ccc(C(F)(F)F)cc1` [LEFLUNOMIDE], the results for the hepatocyte CLint in data set [1] and in data set [3] were under 3 µL/min/1e6 cells and 24 µL/min/1e6 cells, respectively. The solubility (thermodynamic) in data set [2] was 67.6 µM (≈ 18.3 µg/mL). Also, the logD in data set [4] is 3.9.

On to `C[C@H]1C[C@@H]2[C@H]([C@@H](O)C[C@@]3(C)[C@H]2CC[C@]3(O)C(=O)CO)[C@@]2(C)C=CC(=O)C=C12` [METHYLPREDNISOLONE], for which the hepatocyte CLint in data set [1] was 9.12 µL/min/1e6 cells; in data set [3], over 150 µL/min/1e6 cells. Also, the fraction unbound at 5 h in data set [6] is 0.201. This compound also returned a logD in data set [4] of 2.12.

On to `CCS(=O)(=O)CCCC12CCC(c3nnc(-c4ccccc4C(F)(F)F)n3C)(CC1)CC2` [MK-0736], for which the hepatocyte CLint in data set [1] and in data set [3] was under 3 µL/min/1e6 cells in each case. This compound also yielded a microsomal CLint in data set [5] (liver microsomes) of under 3 µL/min/mg.

Turning to `CO[C@H]1C[C@@H]2CC[C@@H](C)[C@@](O)(O2)C(=O)C(=O)N2CCCC[C@H]2C(=O)O[C@H]([C@H](C)C[C@@H]2CC[C@@H](O)[C@H](OC)C2)CC(=O)[C@H](C)/C=C(\C)[C@@H](O)[C@@H](OC)C(=O)[C@H](C)C[C@H](C)/C=C/C=C/C=C/1C` [SIROLIMUS], the hepatocyte CLint is 50.1 µL/min/1e6 cells in data set [1] and over 150 µL/min/1e6 cells in data set [3].

`CCCCNC(=O)NS(=O)(=O)c1ccc(C)cc1` [TOLBUTAMIDE]: the hepatocyte CLint amounted to 6.31 µL/min/1e6 cells in data set [1] and 6.61 µL/min/1e6 cells in data set [3]. The microsomal CLint in data set [5] (microsomes) amounted to 6.31 µL/min/mg.
